Reference: ChEMBL document CHEMBL1137168, “Tubulin inhibitors. Synthesis and biological activity of HTI-286 analogs with B-segment heterosubstituents” (Bioorg Med Chem Lett, 2004)

Columns and labels:
KB 3-1 [1] = assay: Compound was tested for the cytotoxicity against KB-3-1 cell line; type: functional, cell-based; conditions: Homo sapiens
KB [2] = assay: Compound was tested for the cytotoxicity against KB-8-5 cell line expressing P-glycoprotein; type: functional, cell-based; conditions: Homo sapiens
Tubulin = assay: Compound was evaluated for the inhibition of MAP-rich tubulin polymerisation at 0.3 uM
KB-V1 (Homo sapiens) = assay: Compound was tested for the cytotoxicity against KB-V1 cell line expressing P-glycoprotein
KB 3-1 [3] = assay: Compound was tested for the cytotoxicity against KB-3-1 cell line; value ranges from 0.6-2 nM; type: functional, cell-based; conditions: Homo sapiens
KB [4] = assay: Compound was tested for the cytotoxicity against KB-8-5 cell line expressing P-glycoprotein; value ranges from 1.2-5 nM; type: functional, cell-based; conditions: Homo sapiens
KB 3-1 [5] = assay: Compound was tested for the cytotoxicity against KB-3-1 cell line; value ranges from 2-6 nM; type: functional, cell-based; conditions: Homo sapiens
KB [6] = assay: Compound was tested for the cytotoxicity against KB-8-5 cell line expressing P-glycoprotein; value ranges from 30-80 nM; type: functional, cell-based; conditions: Homo sapiens

Row | SMILES | IC50 (KB 3-1 [1]) [nM] | IC50 (KB [2]) [nM] | inhibition (Tubulin) [%] | IC50 (KB-V1 (Homo sapiens)) [nM] | IC50 (KB 3-1 [3]) [nM] | IC50 (KB [4]) [nM] | IC50 (KB 3-1 [5]) [nM] | IC50 (KB [6]) [nM]
1 | CN[C@H](C(=O)N[C@H](C(=O)N(C)[C@H](/C=C(\C)C(=O)O)C(C)C)C(C)(C)S(C)(=O)=O)C(C)(C)c1ccccc1 | 178 | 589 | 87 | > 3000 |  |  |  | 
2 | CN[C@H](C(=O)N[C@H](C(=O)N(C)[C@H](/C=C(\C)C(=O)O)C(C)C)C(C)(C)SCc1ccc(OC)cc1)C(C)(C)c1ccc(OC)cc1 | 15.8 | 43.7 | 77 | 2090 |  |  |  | 
3 | CN[C@H](C(=O)N[C@H](C(=O)N(C)[C@H](/C=C(\C)C(=O)O)C(C)C)C(C)(C)O)C(C)(C)c1ccccc1 | 57.9 | 95 | 84 | > 3000 |  |  |  | 
4 | CN[C@H](C(=O)N[C@H](C(=O)N(C)[C@H](/C=C(\C)C(=O)O)C(C)C)C(C)OC)C(C)(C)c1ccccc1 (some centres not stated) | 871 | 1740 | 95 | > 3000 |  |  |  | 
5 | CN[C@H](C(=O)N[C@H](C(=O)N(C)[C@H](/C=C(\C)C(=O)O)C(C)C)C(C)(C)c1ccc(OC)cc1)C(C)(C)c1ccccc1 | 25.5 | 54.9 | 56 | 1790 |  |  |  | 
6 | CN[C@H](C(=O)N[C@H](C(=O)N(C)[C@H](/C=C(\C)C(=O)O)C(C)C)C(C)O)C(C)(C)c1ccccc1 (some centres not stated) | 275 | 692 | 91 | > 3000 |  |  |  | 
7 | CN[C@H](C(=O)N[C@H](C(=O)N(C)[C@H](/C=C(\C)C(=O)O)C(C)C)C(C)(C)C)C(C)(C)c1ccccc1 [TALTOBULIN] |  |  |  |  | 2 | 5 |  | 
8 | CN[C@H](C(=O)N[C@H](C(=O)N(C)[C@H](/C=C(\C)C(=O)O)C(C)C)C(C)(C)SC)C(C)(C)c1ccccc1 | 1.2 | 2.2 |  | 144 |  |  |  | 
9 | CN[C@H](C(=O)N[C@H](C(=O)N(C)[C@H](/C=C(\C)C(=O)O)C(C)C)C(C)(C)SC)C(C)(C)c1ccc(OC)cc1 | 0.64 | 1.8 | 88 | 62.4 |  |  |  | 
10 | CC(=O)O[C@H]1C(=O)[C@@]2(C)[C@H]([C@H](OC(=O)c3ccccc3)[C@]3(O)C[C@H](OC(=O)[C@H](O)[C@@H](NC(=O)c4ccccc4)c4ccccc4)C(C)=C1C3(C)C)[C@]1(OC(C)=O)CO[C@@H]1C[C@@H]2O [PACLITAXEL] |  |  |  | > 3000 |  |  | 6 | 80
11 | CN[C@H](C(=O)N[C@H](C(=O)N(C)[C@H](/C=C(\C)C(=O)O)C(C)C)C(C)(C)[S+](C)[O-])C(C)(C)c1ccccc1 (some centres not stated) | > 3000 | > 3000 | 43 | > 3000 |  |  |  | 
12 | CN[C@H](C(=O)N[C@H](C(=O)N(C)[C@H](/C=C(\C)C(=O)O)C(C)C)C(C)(C)F)C(C)(C)c1ccccc1 | 1.6 | 3.5 | 91 | 117 |  |  |  | 
13 | CN[C@H](C(=O)N[C@H](C(=O)N(C)[C@H](/C=C(\C)C(=O)O)C(C)C)C(C)(C)SCc1ccc(OC)cc1)C(C)(C)c1ccccc1 | 58.8 | 93.7 | 94 | 2290 |  |  |  | 
14 | CN[C@H](C(=O)N[C@@H](C(=O)N(C)[C@H](/C=C(\C)C(=O)O)C(C)C)C(C)O)C(C)(C)c1ccccc1 (some centres not stated) | > 3000 | > 3000 | 9 | > 3000 |  |  |  | 
